From publication PMC9229919, “4-Aminoquinoline-Based Adamantanes as Potential Anticholinesterase Agents in Symptomatic Treatment of Alzheimer’s Disease” (Pharmaceutics, 2022)
Like-named read-outs stand apart in the source and are kept apart here.

What was measured:
[1] = Ferric reducing antioxidant power (FRAP) assay; details: mean ± standard error of three experiments;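 also: expressed as µM Fe2+ equivalents from an FeSO4·7H2O standard curve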
Procedure, shortened: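 Compounds at 10 and 100 µM were mixed with FRAP reagent (300 mM acetate buffer pH 3.6, TPTZ in HCl, FeCl3, 10:1:1) and incubated 60 min at 37 °C. Fe^2+-TPTZ formation read at 593 nm against a blank. Values derived from an Fe2SO4·7H2O standard curve, three independent experiments.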

purified human BChE = target: T1, purified human BChE (Homo sapiens, UniProt P06276); test: biochemical; format: biochemical
T1 construct: possibly also a gift of Dr Florian Nachon (the sentence is ambiguous)
Procedure, shortened: (§1)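 Modified Ellman assay with acetylthiocholine and DTNB in 0.1 M sodium phosphate pH 7.4 (enzymes diluted with 0.1% BSA), ≤0.2% DMSO, 25 °C. At least three inhibitor concentrations per substrate level; Ki,app from Hunter–Downs equation, Ki from y-intercept and inhibition type from Ki,app vs [S].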

recombinant human AChE = target: T2, recombinant human AChE (Homo sapiens, UniProt P22303); test: biochemical; format: biochemical; details: for IS: IS = Ki(BChE)/Ki(AChE), IS > 1 selective to AChE
T2 construct: gift of Dr Florian Nachon (Armed Forces Biomedical Research Institute, Brétigny-sur-Orge, France)
Procedure, shortened: as §1

[2] = Reverse-phase thin-layer chromatographic lipophilicity (RF, RM0); format: physicochemical; details: for RM0: intercept of RM = RM0 + bC; for b: slope of RM = RM0 + bC; for RF, Methanol/Water/Hydrochloric acid (conc.), mobile phase I / RF, Dioxane/Water/Hydrochloric acid (conc.), mobile phase II / RF, Methanol/Water/Hydrochloric acid (conc.), mobile phase II / RF, Acetone/Water/Hydrochloric acid (conc.), mobile phase III / RF, Dioxane/Water/Hydrochloric acid (conc.), mobile phase III / RF, Methanol/Water/Hydrochloric acid (conc.), mobile phase III / RF, Dioxane/Water/Hydrochloric acid (conc.), mobile phase IV / RF, Acetone/Water/Hydrochloric acid (conc.), mobile phase IV / RF, Methanol/Water/Hydrochloric acid (conc.), mobile phase IV / RF, Acetone/Water/Hydrochloric acid (conc.), mobile phase IX / RF, Methanol/Water/Hydrochloric acid (conc.), mobile phase IX / RF, Dioxane/Water/Hydrochloric acid (conc.), mobile phase V / RF, Acetone/Water/Hydrochloric acid (conc.), mobile phase V / RF, Methanol/Water/Hydrochloric acid (conc.), mobile phase V / RF, Dioxane/Water/Hydrochloric acid (conc.), mobile phase VI / RF, Acetone/Water/Hydrochloric acid (conc.), mobile phase VI / RF, Methanol/Water/Hydrochloric acid (conc.), mobile phase VI / RF, Acetone/Water/Hydrochloric acid (conc.), mobile phase VII / RF, Methanol/Water/Hydrochloric acid (conc.), mobile phase VII / RF, Acetone/Water/Hydrochloric acid (conc.), mobile phase VIII / RF, Methanol/Water/Hydrochloric acid (conc.), mobile phase VIII / RF, Acetone/Water/Hydrochloric acid (conc.), mobile phase I / RF, Dioxane/Water/Hydrochloric acid (conc.), mobile phase I / RF, Acetone/Water/Hydrochloric acid (conc.), mobile phase II: RP-18 silica; for RF, Methanol/Water/Hydrochloric acid (conc.), mobile phase I: I = 90%MeOH/5%H2O/5%HCl; for RF, Dioxane/Water/Hydrochloric acid (conc.), mobile phase II: II = 80%Dioxane/15%H2O/5%HCl; for RF, Methanol/Water/Hydrochloric acid (conc.), mobile phase II: II = 85%MeOH/10%H2O/5%HCl; for RF, Acetone/Water/Hydrochloric acid (conc.), mobile phase III: III = 70%AC/25%H2O/5%HCl; for RF, Dioxane/Water/Hydrochloric acid (conc.), mobile phase III: III = 70%Dioxane/25%H2O/5%HCl; for RF, Methanol/Water/Hydrochloric acid (conc.), mobile phase III: III = 80%MeOH/15%H2O/5%HCl; for RF, Dioxane/Water/Hydrochloric acid (conc.), mobile phase IV: IV = 60%Dioxane/35%H2O/5%HCl; for RF, Acetone/Water/Hydrochloric acid (conc.), mobile phase IV: IV = 65%AC/30%H2O/5%HCl; for RF, Methanol/Water/Hydrochloric acid (conc.), mobile phase IV: IV = 75%MeOH/20%H2O/5%HCl; for RF, Acetone/Water/Hydrochloric acid (conc.), mobile phase IX: IX = 40%AC/55%H2O/5%HCl; for RF, Methanol/Water/Hydrochloric acid (conc.), mobile phase IX: IX = 50%MeOH/45%H2O/5%HCl; for RF, Dioxane/Water/Hydrochloric acid (conc.), mobile phase V: V = 50%Dioxane/45%H2O/5%HCl; for RF, Acetone/Water/Hydrochloric acid (conc.), mobile phase V: V = 60%AC/35%H2O/5%HCl; for RF, Methanol/Water/Hydrochloric acid (conc.), mobile phase V: V = 70%MeOH/25%H2O/5%HCl; for RF, Dioxane/Water/Hydrochloric acid (conc.), mobile phase VI: VI = 40%Dioxane/55%H2O/5%HCl; for RF, Acetone/Water/Hydrochloric acid (conc.), mobile phase VI: VI = 55%AC/40%H2O/5%HCl; for RF, Methanol/Water/Hydrochloric acid (conc.), mobile phase VI: VI = 65%MeOH/30%H2O/5%HCl; for RF, Acetone/Water/Hydrochloric acid (conc.), mobile phase VII: VII = 50%AC/45%H2O/5%HCl; for RF, Methanol/Water/Hydrochloric acid (conc.), mobile phase VII: VII = 60%MeOH/35%H2O/5%HCl; for RF, Acetone/Water/Hydrochloric acid (conc.), mobile phase VIII: VIII = 45%AC/50%H2O/5%HCl; for RF, Methanol/Water/Hydrochloric acid (conc.), mobile phase VIII: VIII = 55%MeOH/40%H2O/5%HCl; for RF, Acetone/Water/Hydrochloric acid (conc.), mobile phase I: I = 80%AC/15%H2O/5%HCl; for RF, Dioxane/Water/Hydrochloric acid (conc.), mobile phase I: I = 90%Dioxane/5%H2O/5%HCl; for RF, Acetone/Water/Hydrochloric acid (conc.), mobile phase II: II = 75%AC/20%H2O/5%HCl
Procedure, shortened: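 Reverse-phase TLC using mobile phases of methanol, acetone or dioxane with water and hydrochloric acid. Methanol varied in 10% steps; development distance 4.5 cm, ambient temperature (22±2 °C). RF measured and RM0 derived from retention.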

[3] = logarithm of Ki in µM, BChE, dependent variable of the QSAR model, read-out: Y Measured 2 log(ki)Bche, log (Ki/µM BChE) (converted)
[4] = ± standard error, 25 °C, ATCh substrate, read-out: Ki BChE
[5] = log (Ki/µM AChE), read-out: Y Measured 1 log(ki)Ache (converted)
[6] = ± standard error, 25 °C, ATCh substrate, read-out: Ki AChE
[7] = Acetone/Water/Hydrochloric acid (conc.)
[8] = Dioxane/Water/Hydrochloric acid (conc.)
[9] = Methanol/Water/Hydrochloric acid (conc.)

T2 sequence (P22303 32-614): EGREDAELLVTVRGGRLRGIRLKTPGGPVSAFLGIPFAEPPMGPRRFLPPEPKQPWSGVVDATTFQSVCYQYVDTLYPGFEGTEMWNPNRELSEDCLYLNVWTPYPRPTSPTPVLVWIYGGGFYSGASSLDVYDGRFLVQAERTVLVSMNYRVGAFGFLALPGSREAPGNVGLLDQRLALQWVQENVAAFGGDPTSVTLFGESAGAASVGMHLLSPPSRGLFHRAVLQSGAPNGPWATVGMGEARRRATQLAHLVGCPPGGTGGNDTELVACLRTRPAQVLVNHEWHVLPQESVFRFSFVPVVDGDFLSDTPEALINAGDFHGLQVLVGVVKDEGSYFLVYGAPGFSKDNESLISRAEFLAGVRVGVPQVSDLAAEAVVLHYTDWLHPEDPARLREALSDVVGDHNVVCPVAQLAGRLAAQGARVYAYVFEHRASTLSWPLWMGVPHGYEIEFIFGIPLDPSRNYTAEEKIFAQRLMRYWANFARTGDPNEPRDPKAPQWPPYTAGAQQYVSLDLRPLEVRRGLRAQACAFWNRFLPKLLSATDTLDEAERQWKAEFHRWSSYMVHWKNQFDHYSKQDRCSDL
T1 sequence (P06276 29-602): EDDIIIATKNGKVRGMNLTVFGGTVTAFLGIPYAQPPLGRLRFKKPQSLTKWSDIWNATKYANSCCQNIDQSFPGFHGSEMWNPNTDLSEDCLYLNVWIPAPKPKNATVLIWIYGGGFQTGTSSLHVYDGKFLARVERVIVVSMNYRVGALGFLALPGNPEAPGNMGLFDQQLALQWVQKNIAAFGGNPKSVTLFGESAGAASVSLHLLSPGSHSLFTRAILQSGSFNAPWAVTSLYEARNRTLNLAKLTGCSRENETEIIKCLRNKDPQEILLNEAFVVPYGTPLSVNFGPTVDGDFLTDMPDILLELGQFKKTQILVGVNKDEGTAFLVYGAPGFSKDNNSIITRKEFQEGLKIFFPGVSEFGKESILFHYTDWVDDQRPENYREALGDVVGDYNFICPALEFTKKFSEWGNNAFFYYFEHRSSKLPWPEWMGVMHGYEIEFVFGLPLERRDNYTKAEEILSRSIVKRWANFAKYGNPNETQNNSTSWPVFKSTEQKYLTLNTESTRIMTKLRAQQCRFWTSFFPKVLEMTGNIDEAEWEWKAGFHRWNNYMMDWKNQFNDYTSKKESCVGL

SMILES: Clc1ccc2c(NCCNCCC34CC5CC(CC(C5)C3)C4)ccnc2c1 [Compound 8]
- FRAP ([1]; 10 µM compound): 33 ± 12 µM
- FRAP ([1]; 100 µM compound): 62 ± 7 µM
- Ki (purified human BChE; [3]): 0.92 µM
- Ki (purified human BChE; [4]): 0.92 ± 0.07 µM
- IS (recombinant human AChE): 0.6
- Ki (recombinant human AChE; [5]): 1.6 µM
- Ki (recombinant human AChE; [6]): 1.6 ± 0.1 µM
- RM0 [2, 7]: 2.227
- b [2, 7]: 3.421
- RM0 [2, 8]: 1.144
- b [2, 8]: 2.1084
- RM0 [2, 9]: 2.713
- b [2, 9]: 3.446
- RF, Methanol/Water/Hydrochloric acid (conc.), mobile phase I [2]: 0.69
- RF, Dioxane/Water/Hydrochloric acid (conc.), mobile phase II [2]: 0.74
- RF, Methanol/Water/Hydrochloric acid (conc.), mobile phase II [2]: 0.63
- RF, Acetone/Water/Hydrochloric acid (conc.), mobile phase III [2]: 0.55
- RF, Dioxane/Water/Hydrochloric acid (conc.), mobile phase III [2]: 0.68
- RF, Methanol/Water/Hydrochloric acid (conc.), mobile phase III [2]: 0.45
- RF, Dioxane/Water/Hydrochloric acid (conc.), mobile phase IV [2]: 0.66
- RF, Acetone/Water/Hydrochloric acid (conc.), mobile phase IV [2]: 0.5
- RF, Methanol/Water/Hydrochloric acid (conc.), mobile phase IV [2]: 0.47
- RF, Acetone/Water/Hydrochloric acid (conc.), mobile phase IX [2]: 0.08
- RF, Methanol/Water/Hydrochloric acid (conc.), mobile phase IX [2]: 0.08
- RF, Dioxane/Water/Hydrochloric acid (conc.), mobile phase V [2]: 0.47
- RF, Acetone/Water/Hydrochloric acid (conc.), mobile phase V [2]: 0.39
- RF, Methanol/Water/Hydrochloric acid (conc.), mobile phase V [2]: 0.39
- RF, Dioxane/Water/Hydrochloric acid (conc.), mobile phase VI [2]: 0.28
- RF, Acetone/Water/Hydrochloric acid (conc.), mobile phase VI [2]: 0.34
- RF, Methanol/Water/Hydrochloric acid (conc.), mobile phase VI [2]: 0.28
- RF, Acetone/Water/Hydrochloric acid (conc.), mobile phase VII [2]: 0.29
- RF, Methanol/Water/Hydrochloric acid (conc.), mobile phase VII [2]: 0.18
- RF, Acetone/Water/Hydrochloric acid (conc.), mobile phase VIII [2]: 0.21
- RF, Methanol/Water/Hydrochloric acid (conc.), mobile phase VIII [2]: 0.13

SMILES: Clc1ccc2c(NCCN(CCC34CC5CC(CC(C5)C3)C4)CCC34CC5CC(CC(C5)C3)C4)ccnc2c1 [Compound 9]
- FRAP ([1]; 10 µM compound): 3.4 ± 0.0 µM
- FRAP ([1]; 100 µM compound): 29 ± 6 µM
- Ki (purified human BChE; [3]): 1.5 µM
- Ki (purified human BChE; [4]): 1.5 ± 0.2 µM
- IS (recombinant human AChE): 0.3
- Ki (recombinant human AChE; [5]): 5.2 µM
- Ki (recombinant human AChE; [6]): 5.2 ± 0.2 µM
- RM0 [2, 7]: 3.559
- b [2, 7]: 4.683
- RM0 [2, 8]: 2.268
- b [2, 8]: 3.179
- RM0 [2, 9]: 5.446
- b [2, 9]: 5.91
- RF, Acetone/Water/Hydrochloric acid (conc.), mobile phase I [2]: 0.58
- RF, Dioxane/Water/Hydrochloric acid (conc.), mobile phase I [2]: 0.75
- RF, Methanol/Water/Hydrochloric acid (conc.), mobile phase I [2]: 0.44
- RF, Acetone/Water/Hydrochloric acid (conc.), mobile phase II [2]: 0.5
- RF, Dioxane/Water/Hydrochloric acid (conc.), mobile phase II [2]: 0.65
- RF, Methanol/Water/Hydrochloric acid (conc.), mobile phase II [2]: 0.31
- RF, Acetone/Water/Hydrochloric acid (conc.), mobile phase III [2]: 0.33
- RF, Dioxane/Water/Hydrochloric acid (conc.), mobile phase III [2]: 0.55
- RF, Methanol/Water/Hydrochloric acid (conc.), mobile phase III [2]: 0.11
- RF, Dioxane/Water/Hydrochloric acid (conc.), mobile phase IV [2]: 0.42
- RF, Acetone/Water/Hydrochloric acid (conc.), mobile phase IV [2]: 0.28
- RF, Methanol/Water/Hydrochloric acid (conc.), mobile phase IV [2]: 0.1
- RF, Acetone/Water/Hydrochloric acid (conc.), mobile phase IX [2]: 0
- RF, Methanol/Water/Hydrochloric acid (conc.), mobile phase IX [2]: 0
- RF, Dioxane/Water/Hydrochloric acid (conc.), mobile phase V [2]: 0.11
- RF, Acetone/Water/Hydrochloric acid (conc.), mobile phase V [2]: 0.13
- RF, Methanol/Water/Hydrochloric acid (conc.), mobile phase V [2]: 0.05
- RF, Dioxane/Water/Hydrochloric acid (conc.), mobile phase VI [2]: 0
- RF, Acetone/Water/Hydrochloric acid (conc.), mobile phase VI [2]: 0.09
- RF, Methanol/Water/Hydrochloric acid (conc.), mobile phase VI [2]: 0.01
- RF, Acetone/Water/Hydrochloric acid (conc.), mobile phase VII [2]: 0
- RF, Methanol/Water/Hydrochloric acid (conc.), mobile phase VII [2]: 0
- RF, Acetone/Water/Hydrochloric acid (conc.), mobile phase VIII [2]: 0
- RF, Methanol/Water/Hydrochloric acid (conc.), mobile phase VIII [2]: 0

SMILES: Clc1ccc2c(NCCCCN(CCC34CC5CC(CC(C5)C3)C4)CCC34CC5CC(CC(C5)C3)C4)ccnc2c1 [Compound 10]
- FRAP ([1]; 10 µM compound): 13 ± 4 µM
- FRAP ([1]; 100 µM compound): 90 ± 6 µM
- Ki (purified human BChE; [4]): 1 ± 0.1 µM
- IS (recombinant human AChE): 0.4
- Ki (recombinant human AChE; [6]): 2.4 ± 0.2 µM
- RM0 [2, 7]: 3.647
- b [2, 7]: 4.824
- RM0 [2, 8]: 1.984
- b [2, 8]: 2.852
- RM0 [2, 9]: 5.456
- b [2, 9]: 5.91
- RF, Acetone/Water/Hydrochloric acid (conc.), mobile phase I [2]: 0.59
- RF, Dioxane/Water/Hydrochloric acid (conc.), mobile phase I [2]: 0.75
- RF, Methanol/Water/Hydrochloric acid (conc.), mobile phase I [2]: 0.44
- RF, Acetone/Water/Hydrochloric acid (conc.), mobile phase II [2]: 0.52
- RF, Dioxane/Water/Hydrochloric acid (conc.), mobile phase II [2]: 0.65
- RF, Methanol/Water/Hydrochloric acid (conc.), mobile phase II [2]: 0.31
- RF, Acetone/Water/Hydrochloric acid (conc.), mobile phase III [2]: 0.33
- RF, Dioxane/Water/Hydrochloric acid (conc.), mobile phase III [2]: 0.59
- RF, Methanol/Water/Hydrochloric acid (conc.), mobile phase III [2]: 0.1
- RF, Dioxane/Water/Hydrochloric acid (conc.), mobile phase IV [2]: 0.47
- RF, Acetone/Water/Hydrochloric acid (conc.), mobile phase IV [2]: 0.28
- RF, Methanol/Water/Hydrochloric acid (conc.), mobile phase IV [2]: 0.1
- RF, Acetone/Water/Hydrochloric acid (conc.), mobile phase IX [2]: 0
- RF, Methanol/Water/Hydrochloric acid (conc.), mobile phase IX [2]: 0
- RF, Dioxane/Water/Hydrochloric acid (conc.), mobile phase V [2]: 0.14
- RF, Acetone/Water/Hydrochloric acid (conc.), mobile phase V [2]: 0.13
- RF, Methanol/Water/Hydrochloric acid (conc.), mobile phase V [2]: 0.05
- RF, Dioxane/Water/Hydrochloric acid (conc.), mobile phase VI [2]: 0
- RF, Acetone/Water/Hydrochloric acid (conc.), mobile phase VI [2]: 0.09
- RF, Methanol/Water/Hydrochloric acid (conc.), mobile phase VI [2]: 0.01
- RF, Acetone/Water/Hydrochloric acid (conc.), mobile phase VII [2]: 0
- RF, Methanol/Water/Hydrochloric acid (conc.), mobile phase VII [2]: 0
- RF, Acetone/Water/Hydrochloric acid (conc.), mobile phase VIII [2]: 0
- RF, Methanol/Water/Hydrochloric acid (conc.), mobile phase VIII [2]: 0
